Test results taken from paper PMC11747586, “Synthesis and Investigation of Peptide–Drug Conjugates Comprising Camptothecin and a Human Protein‐Derived Cell‐Penetrating Peptide” (Chemical Biology & Drug Design, 2025).
Where two headings read alike, the source gives them in different places. Residues, ends and D or L forms follow the SMILES beside them.

Experiments:
cells = test: cells
Protocol: (§1) Cell death was measured using resazurin, with 0.1% (v/v) Triton X‐100 as a control for 100% cell death. Data points are expressed as mean ± SD for at least two biological replicates. Dose response curves were fitted using [inhibitor] versus response with variable slope, Graphpad Prism v10. […] RBC lysis was determined by measuring released hemoglobin, with 0.1% (v/v) Triton X‐100 as a control for 100% cell lysis. Melittin was included as a membranolytic control. Data points are expressed as mean ± SD for two technical replicates. Dose response curves were fitted using [inhibitor] versus response with variable slope, Graphpad Prism v10. […] CC50 values are expressed as mean (SEM).
(§2) Cell death was measured using resazurin, with 0.1% (v/v) Triton X-100 as a control for 100% cell death. Data points are expressed as mean ± SD for at least two biological replicates. CC50 values are expressed as mean (SEM). Note: CPT-dipeptide-PDIP was not included in this study. c[A]PDIP is a desulfurized variant of cPDIP 2 (see Table S1) to prevent the presence of free thiol during assays. […]
(§3) HaCaT cells were grown in DMEM medium and HT144 cells were grown in RPMI medium supplemented with 2 mM L-glutamine and 10 mM sodium pyruvate. Media were supplemented with 10% (v/v) fetal bovine serum, 100 units/mL of penicillin and […] of streptomycin. Flasks of cultured cells were maintained in a humidified incubator (37 °C, 5% CO2) and passaged every 2–3 days to maintain cultures between 20–90% confluence. Cell line identity was verified by comparing […]
(§4) STR profiles of the cell lines against database entries from the DSMZ-German collection of microorganisms and cell cultures, GmBH https://celldive.dsmz.de/str/browse.
(§5) Toxicity to the HT144 and HaCaT cell lines was tested following peptide treatment by measuring the metabolism of resazurin into fluorescent resorufin. The assays were performed with 5000 cells/well (96-well plate) in serum free media. Cells were incubated with serially diluted peptides, PDCs or […]

HT144 (melanoma) cells = test: cells; conditions: 72 h, concentration range 16 nM—2 μM
Protocol: as §1, §2, §3, §4, §5

[1] = Cytotoxicity (resazurin) against cultured HaCaT noncancerous cells
Protocol: as §1, with “(SEM). […]” for “(SEM).”
as §3, §4
(§6) Toxicity to the HT144 and HaCaT cell lines was tested following peptide treatment by measuring the metabolism of resazurin into fluorescent resorufin. The assays were performed with 5000 cells/well (96-well plate) in serum free media. Cells were incubated with serially diluted peptides, PDCs or drugs for 72 h or 24 h (37 °C, 5% CO2). PBS and 0.1% (v/v) Triton X-100 were included as controls for 0% and 100% toxicity. Resazurin was added at 0.02% (w/v) final concentration 2 h prior to the assay end point. Fluorescence (λex = 560 nm, λem = 585 nm) was measured using a Tecan infinite M1000Pro multiplate reader. Percentage cytotoxicity was calculated relative to 0% and 100% controls.
(§7) Dose-response curves were fitted and CC50 values were determined using [inhibitor] vs response with four parameters with the top constrained to 100% (GraphPad Prism version 10.0.2). Data was collected as three biological replicates, with experiments conducted on different days.
(§8) Red blood cell (RBC) lysis
(§9) Human RBCs and serum were obtained from healthy volunteers via the Red Cross Lifeblood, Brisbane, Australia. RBCs were washed three times with PBS and stored in culture medium (RPMI

[2] = Parallel artificial membrane permeability assay (PAMPA); format: in vitro ADME; conditions: for Papp at 4 h, 4 μM: PAMPA
Protocol: FIGURE 4 (A) Membrane permeability and cellular uptake of PDCs, scaffold peptides, and CPT. Compounds were added to PAMPA wells (4 μM) and incubated for 4 h. Supernatant from apical and basolateral sides of the membrane were collected and analyzed using LC–MS. The amount in the combined soluble fractions was compared to the starting amount to determine % recovery, and the apparent permeability (Papp) was calculated as before (Sevin et al. [2013]). Data is expressed as mean ± SD from a single experiment with three technical replicates. (B) Internalization/cell membrane association of PDCs 12–14 and PDIP with HT144 cells. Cells were treated with PDIP or PDCs (4 μM) for 1 h, washed to remove extracellular compound, then extracted with 75% (v/v) MeCN in mQH2O (containing 1.75% (v/v) TFA), to recover soluble peptide or PDC from precipitated cell proteins. The relative amount of internalized peptide or PDC was determined by integrating area under the curve (AUC) for the [M + 6H]^6+ m/z peak (for the intact mass) using time of flight–mass spectrometry (see Figure S2). […] Data is expressed as mean ± SD from a single experiment with three technical replicates for each treatment and control and was analyzed with ANOVA (Tukey multiple comparisons; **p < 0.01, *p < 0.05). (C) Detection of intracellular CPT following 6 h treatment of HT144 cells with CPT and PDCs 12 and 14. […] Data is expressed as mean ± SD from a single experiment with three technical replicates for each treatment and was analyzed with ANOVA (Fisher multiple paired comparisons; **p < 0.01, *p < 0.05). TEXT PRINTED IN THE PICTURE: (A) PDIP: % recovered (soluble fractions): 94 | (A) 12: % recovered (soluble fractions): 58 | (A) 14: % recovered (soluble fractions): 33 | (A) 15: % recovered (soluble fractions): 40 | (A) c[A] PDIP: % recovered (soluble fractions): 34 | (A) CPT: % recovered (soluble fractions): 92 […]
For the first assay, the PDCs (12–15), scaffold peptides and CPT (4 μM) were added to the apical side of PAMPA monolayers and incubated for 4 h. […] PDIP, CPT, and PDCs 12 and 14 had high permeability (Papp ≥ 2 × 10^−6 cm/s), highlighting that these PDCs maintain membrane permeability with the CPT cargo attached. […] Reliable permeability data were not obtained for PDC 13 because of poor recovery of the PDC from soluble fractions, and degradation during the 4 h PAMPA experiment. […] Instability of the carbonate linkage within CPT conjugates containing a dipeptide linker has been previously reported (Walker et al. [2002]), highlighting the potential incompatibility of this drug–linker combination for CPT PDCs. Considering the observed degradation of 13 in the cell‐free assay, it is also possible that extracellular degradation occurred during the cytotoxicity assays.
Parallel artificial membrane permeability assay (PAMPA)
PAMPA was performed according to the manufacturer instructions for the BD Gentest pre-coated PAMPA plate system (BD Biosciences), as previously described.16 Briefly, peptides and PDCs (4 μM in PBS) were added to the apical side of PAMPA wells and incubated for 4 h at 37 °C, 5% CO2 with 95% humidity. Soluble fractions were recovered from the apical and basolateral sides, and compound concentration was quantified using a Shimadzu LCMS-2020 instrument with a Phenomenex 5 µm C18 / 300 Å / 150 x 2 mm LC column. Data was collected from three technical replicates for each compound. The % recovery was determined from (combined from apical and basolateral fractions) relative to the starting concentration:
Recovery rate : R (%) = (C஺ ×V஺ +C஻ ×V஻ )× 100 where CA and CB are the apical and basolateral concentrations (µM), VA and VB are the apical and basolateral volumes (mL), and C0 is the initial concentration (µM).
The apparent permeability coefficient (Papp) was calculated using the following equations17 and where A is the membrane surface area (cm2): […]

[3] = system: HaCaT (noncancerous) cells; test: Cytotoxicity (resazurin) against cultured HaCaT noncancerous cells; conditions: read-out: CC50 HaCaT; 72 h incubation, resazurin; mean (SEM)
Protocol: as §1, with “(SEM). […]” for “(SEM).”
as §3, §4, §6, §7, §8, §9

Question: With `CC[C@H](C)[C@@H]1NC(=O)[C@H](CCCCN)NC(=O)[C@H](CCCCN)NC(=O)[C@H](Cc2ccc(O)cc2)NC(=O)[C@H](CC(C)C)NC(=O)[C@@H]2CCCN2C(=O)CNC(=O)CNC(=O)[C@@H](NC(=O)CN)CSSC[C@@H](C(=O)N[C@@H](CCC(=O)O)C(=O)N[C@@H](CO)C(N)=O)NC(=O)[C@H](CC(C)C)NC(=O)[C@H](CCCCN)NC(=O)[C@H](CCCCN)NC(=O)[C@H]([C@@H](C)CC)NC(=O)[C@H]([C@@H](C)CC)NC(=O)[C@H](CCCCN)NC(=O)[C@H](CCCCN)NC(=O)[C@H](Cc2ccc(O)cc2)NC(=O)[C@H](CC(C)C)NC(=O)[C@@H]2CCCN2C(=O)[C@H](C)NC(=O)CNC(=O)CNC(=O)[C@H](Cn2cc(CCCC(=O)O[C@]3(CC)C(=O)OCc4c3cc3n(c4=O)Cc4cc5ccccc5nc4-3)nn2)NC(=O)CNC(=O)CNC(=O)[C@H](CO)NC(=O)[C@H](CCC(=O)O)NC(=O)[C@H](CC(C)C)NC(=O)[C@H](CC(C)C)NC(=O)[C@H](CCCCN)NC(=O)[C@H](CCCCN)NC(=O)[C@H]([C@@H](C)CC)NC1=O` [PDC 12] as the molecule, how does the CC50 (cells) read?
Answer: > 2 µM

Question: What about the “cytotoxic activity against HT144” value (HT144 (melanoma) cells) of the same molecule?
Answer: no activity

Question: What about the CC50 [1] of the same molecule?
Answer: > 2 µM

Question: What about the “% recovered (soluble fractions)” value ([2]; 4 μM, 4 h, combined apical and basolateral fractions) of the same molecule?
Answer: 58%

Question: What about the Papp at 4 h, 4 μM ([2]; 4 μM, 4 h, apical to basolateral, read-out: apparent permeability (Papp)) of the same molecule?
Answer: ≥ 2 ×10⁻⁶ cm/s

Question: Which CC50 (cells) does the source give for `CC[C@H](C)[C@@H]1NC(=O)[C@H](CCCCN)NC(=O)[C@H](CCCCN)NC(=O)[C@H](Cc2ccc(O)cc2)NC(=O)[C@H](CC(C)C)NC(=O)[C@@H]2CCCN2C(=O)[C@H](C)NC(=O)CNC(=O)CNC(=O)[C@H](CO)NC(=O)CNC(=O)CNC(=O)[C@H](CO)NC(=O)[C@H](CCC(=O)O)NC(=O)[C@H](CC(C)C)NC(=O)[C@H](CC(C)C)NC(=O)[C@H](CCCCN)NC(=O)[C@H](CCCCN)NC(=O)[C@H]([C@@H](C)CC)NC(=O)[C@H]([C@@H](C)CC)NC(=O)[C@H](CCCCN)NC(=O)[C@H](CCCCN)NC(=O)[C@H](Cc2ccc(O)cc2)NC(=O)[C@H](CC(C)C)NC(=O)[C@@H]2CCCN2C(=O)[C@H](C)NC(=O)CNC(=O)CNC(=O)[C@H](C)NC(=O)CNC(=O)CNC(=O)[C@H](CO)NC(=O)[C@H](CCC(=O)O)NC(=O)[C@H](CC(C)C)NC(=O)[C@H](CC(C)C)NC(=O)[C@H](CCCCN)NC(=O)[C@H](CCCCN)NC(=O)[C@H]([C@@H](C)CC)NC1=O` [c[A]PDIP] (cyclo(AGGAPLYKKIIKKLLESGGSGGAPLYKKIIKKLLESGG)) here?
Answer: 9.35 µM

Question: What about the CC50 [1] of the same molecule?
Answer: ~32 µM

Question: What about the CC50 [3] of the same molecule?
Answer: ≥ 32 µM

Question: And the Papp at 4 h, 4 μM [2]?
Answer: ~0.4 ×10⁻⁶ cm/s
